Here are results for one compound from patent US7034020B2, “Derivatives of butyric acid and uses thereof” (The University of Arkansas for Medical Science, priority 1999, dated 2006).

For one test, the system named is lymph node CD4+ T cells. Briefly: Ovalbumin-stimulated proliferation of lymph node CD4+ T cells from treated mice. It is filed as in vivo, C57BL/10 mice. The conditions noted are these: MEB 0.15 mmol ip on day 2 or day 3; cells restimulated with ovalbumin in vitro. As to the method:
C57BL/10 mice are injected ip with ovalbumin/CFA on day 0, followed by a single ip injection of saline or MEB (0.15 mmol) on Days 2 or 3. The mice are reimmunized with ovalbumin sc on Day 10. Isotype-specific anti-ovalbumin antibody generated during the primary immune response (FIG. 4A), and the secondary immune response (FIG. 4B) are measured in the serum at day 10 and day 16, respectively. (FIG. 4C). […] This experiment was repeated, and the proliferation data represents the means of the two experiments.
If the butyrate derivatives suppressed antibody production to a thymus-dependent antigen by inactivating the antigen-specific CD4^+ T cells required for B cell help, then the butyrate derivatives need only be present during an early stage during which the CD4^+ T cells would otherwise be activated by antigen. […] On day 10 the mice receive 100 μg ovalbumin in conjunction with incomplete Freund's adjuvant sc at the base of the tail. After an additional 7 days, cells from the periaortic and mesenteric lymph nodes were enriched for CD4^+ T cells by negative selection (Griffin et al., 1998). […] Proliferation is measured on day 4 by assessing incorporation of [^3H]-TdR after a 12 hour pulse.

Test [1] concerns KLH-specific Th1 cells (clone D3). Briefly: Th1 cell anergy induction in vitro (primary culture with MEB, secondary culture restimulation). The class given is cell-based, C57BL/10 mice. The following applies: for Proliferation in antigen-stimulated secondary cultures: secondary: KLH. The procedure: KLH-specific Th1 cells (clone D3) are incubated in primary cultures with (FIG. 5A) MEB (1 mM) and/or IL-2 (10% Con A CM), or (FIG. 5B) MEB (1 mM) and/or KLH (50 μg/ml). After 2 days, the Th1 cells are isolated from the primary cultures, rested, and then re-incubated in secondary cultures stimulated with antigen (KLH, 50 μg/ml) or IL-2 (10% Con A CM).
Th1 cells are treated with MEB in the presence or absence of antigen or exogenous IL-2.
The ability of the butyrate derivative to induce Th1 cell anergy is examined using a protocol previously developed for n-butyrate-induced T cell tolerance (Gilbert and Weigle, 1993). Briefly, Th1 cells are incubated in primary cultures at 2.5×10^5 cells/ml, along with MEB (1 mM), KLH (50 μg/ml), and 5×10^6/ml irradiated syngeneic spleen cells as APC. Alternatively, the Th1 cells are incubated in primary cultures containing MEB and IL-2 (10% Con A CM). Control primary cultures receive MEB and APC, but no antigen or IL-2. After incubation for 24 h at 37° C., the cells in the primary cultures are harvested, washed free of MEB, and reincubated at 2.5×10^5 ml in secondary cultures without MEB. The Th1 cells in the secondary cultures are stimulated with 10% IL-2-cQntaining Con A CM, or with 5×10^6/ml irradiated syngeneic spleen cells as APC, and KLH. After 2 days in the secondary cultures, the Th1 cells are assessed for proliferation (pulsed with [^3H]-TdR for 12 h).

The subject of test [2] is spleen cells from DBA/2 mice. Briefly: Mixed lymphocyte response (MLR), alloantigen-specific T cell unresponsiveness. It is filed as cell-based. The procedure: (FIG. 6A) Spleen cells from DBA/2 mice (H-2^d) were stimulated in a primary mixed lymphocyte response (MLR) with irradiated spleen cells or from C57BL/10 mice (H-2^b) in the presence (∘) or absence (●) of MEB (1 mM). As a negative control some wells are stimulated with spleen cells from DBA/2 mice (▾). Proliferation is measured on day 5. (FIG. 6B) After 3 days, some wells in the primary MLR cultures are washed, and rested for a further 2 days. The spleen cells that were stimulated in the primary MLR with spleen cells from C57BL/10 mice in the presence (∘) or absence (●) of MEB are then isolated and reincubated with either the original alloantigen (spleen cells from C57BL/10 mice), with a third-party alloantigen [spleen cells from C3H/HeJ mice (H-2k)], or with IL-2 (Con A CM).
The ability of MEB to induce alloantigen-specific T cell unresponsiveness is shown by incubating spleen cells from DBA/2 mice (H-2^d) (2.5×10^5 in 200 μl /wells) with stimulator cells [2.5×10^5 irradiated (2000R) spleen cells from C57BL/10 mice (H-2^b)]. MEB (1 mM) is added to some wells of the mixed lymphocyte reaction (MLR) 24 hours after the initiation of culture. After an additional 3 days, the MLR cultures are washed, and rested for a further 2 days. The T cells from the MLR are then isolated and reincubated at 2.5×10^5/well with either the initial alloantigen (spleen cells from C57BL/10 mice), or with a third-party alloantigen [spleen cells from C3H/HeJ mice (H-2^k)]. Proliferation in both the primary and secondary MLR is measured on day 5 by assessing incorporation of [^3H]-TdR after a 12 hour pulse.

SMILES strings stand for the structures.

In the case of `CCCC(=O)OCCN1CCOCC1.Cl` [MEB, 2-(4-Morpholinyl)ethyl butyrate hydrochloride], the “Antigen-specific proliferation of CD4+ T cells from antigen-primed mice” value with lymph node CD4+ T cells is on record as “significant loss of antigen-specific proliferation”. Also, the “Proliferation in antigen-stimulated secondary cultures” value is recorded as “retain their ability to proliferate to antigen” in test [1] (primary culture: IL-2 and MEB (1 mM)); “retain their ability to proliferate in response to antigen stimulation” in test [1] (primary culture: MEB alone (1 mM)); “lose their ability to proliferate” in test [1] (primary culture: antigen (KLH) and MEB (1 mM)). Further, the “Proliferation in secondary cultures stimulated with exogenous IL-2” value in test [1] (primary culture: antigen (KLH) and MEB (1 mM), secondary: IL-2) is recorded as “can still proliferate”. For the same compound, the “Proliferation in secondary MLR, third-party alloantigen” value in test [2] (MEB 1 mM in primary MLR, restimulated with C3H/HeJ spleen cells) was “able to proliferate”. Besides, the “Proliferation in secondary MLR, initial alloantigen” value in test [2] (MEB 1 mM in primary MLR, restimulated with C57BL/10 spleen cells without MEB) is listed as “lose their ability to proliferate”. In addition, in test [2] (MEB 1 mM in primary MLR, restimulated with IL-2), the “Proliferation in secondary culture, exogenous IL-2” value is listed as “able to proliferate”. The “Spleen cell proliferation in primary one-way MLR” value in test [2] (MEB 1 mM, day 5) is recorded as “blocked spleen cell proliferation”.
